Patent US12605350B2, “Composition for preventing, ameliorating, or treating disease caused by nitration of tyrosine in proteins comprising tyrosine as effective component” (INDUSTRY-ACADEMIC COOPERATION FOUNDATION GYEONGSANG …, priority 2020, dated 2026)
“Also recorded” adds a separate entry of the source.

Experiments:
IL-6 = IL-6 gene expression in kidney tissues (quantitative real-time PCR), renal ischemia and reperfusion; type: in vivo, mouse; settings: L-tyrosine 100 mg/kg oral once a day for 4 days, 24 hours after ischemia and reperfusion
Procedure: (§1) C57BL/6 male mouse (23 to 25 g, KOATECH, South Korea) was allowed to have free access to diets and water in sterile breeding room with constant temperature and humidity. The animals were divided into 3 test groups, i.e., 1) Control group (Sham), 2) Renal ischemia having treatment with prepared solvent and induced reperfusion group (CMC+IR), and 3) Renal ischemia having treatment with L-tyrosine and induced reperfusion group (L-Tyr+IR).
L-Tyrosine (100 mg/kg) was suspended in 0.5% CMC (carboxymethyl cellulose). The animal was orally administered, once a day for 4 days, with L-tyrosine or the prepared solvent CMC. Thirty minutes after the oral administration on Day 4, renal ischemia was caused. Specifically, the animal abdomen was cut and renal pedicles at both sides were clamped using a Muller atraumatic vascular clamp to cause renal ischemia. After 25 minutes of blood ischemia, the clamp was removed followed by reperfusion. The control group (Sham) received the same operational procedures as above except the ischemia using clamp. […]
According to Trizol method, total RNA was extracted from kidney tissues, and cDNA was synthesized by using Revert Aid Reverse Transcription System (ThermoFisher). Quantitative PCR was carried out with CFX Connect Real-Time PCR system (Bio-Rad) by using iQ SYBR Green Super mix (Bio-Rad). […]

nitrotyrosine protein = nitrotyrosine protein in liver tissues (Western blot), azoxymethane model; type: in vivo, mouse; settings: L-tyrosine 100 mg/kg oral for 4 days, 16 hours after the administration of AOM
Procedure: C57BL/6 male mouse (13-week old, KOATECH, South Korea) was allowed to have free access to diets and water in sterile breeding room with constant temperature and humidity. The animals were divided into 3 test groups, i.e., (1) Control group (Control), (2) Carboxymethyl cellulose+azoxymethane treatment group (CMC+AOM), and (3) L-Tyrosine+AOM treatment group (L-Tyr+AOM). L-Tyrosine (100 mg/kg) was suspended in 0.5% CMC (carboxymethyl cellulose). The animal was orally administered, once a day for 4 days, with L-tyrosine or the prepared solvent CMC. Two hours after the oral administration on Day 4, intraperitoneal injection of AOM (100 mg/kg, […]) was carried out. To prevent dehydration, the animal was intraperitoneally injected with […] of physiological saline, 12 hours after the administration of AOM. Four hours after the injection, the test animal was sacrificed, blood was collected from the heart, and the liver tissues were harvested.
Liver tissues were homogenized with RIPA buffer solution. After centrifuge for 15 minutes at 16,000×g, 4° C., supernatant was collected and the protein quantification was carried out by BCA method. After SDS-PAGE electrophoresis, proteins were transferred to a PVDF membrane, and then blocked with 5% skim milk. […]

[1] = system: mouse model of epileptic seizure which has been induced to have seizure by kainic acid; experiment: ROS/RNS in hippocampal tissues after kainic acid; type: in vivo; settings: mouse survived after kainic acid, tyrosine diet vs ND
Procedure: Hippocampus in brain tissues was added with RIPA (containing proteinase/phosphatase inhibitor), in an amount of 100 μl per 10 mg of the tissues, and then lysed for 1 minute by using glass beads and a bullet blender. Supernatant was separated by centrifuge for 15 minutes at 12,000×g, 4° C., and, after 10-fold dilution with PBS, used for measurement of ROS/RNS. Concentration of ROS/RNS was measured by using Oxiselect ROS/RNS assay kit (Cell Biolabs) according to the recommended experimental protocol.

Cu/Zn SOD = experiment: activity of Cu/Zn SOD, renal ischemia and reperfusion; type: in vivo, mouse; settings: L-tyrosine 100 mg/kg oral for 4 days, IR
Procedure: as §1
L-Tyrosine (100 mg/kg) was suspended in 0.5% CMC (carboxymethyl cellulose). The animal was orally administered, once a day for 4 days, with L-tyrosine or the prepared solvent CMC. Thirty minutes after the oral administration on Day 4, renal ischemia was caused. Specifically, the animal abdomen was cut and renal pedicles at both sides were clamped using a Muller atraumatic vascular clamp to cause renal ischemia. After 25 minutes of blood ischemia, the clamp was removed followed by reperfusion. The control group (Sham) received the same operational procedures as above except the ischemia using clamp. Twenty-four hours after the reperfusion, the test animal was sacrificed, blood was collected from the heart, and the tissues were harvested.

[2] = system: glutamine synthetase (GS); experiment: activity of glutamine synthetase (GS) in hippocampus lysate after kainic acid; type: in vivo; settings: mouse survived after kainic acid, tyrosine diet vs ND/control
Procedure: To a 96-well plate, 2 μl of hippocampus lysate were added, and then adjusted to 50 μl by additionally adding 50 mM imidazole-HCl buffer solution (pH 6.8). After adding 50 μl of GS activity assay buffer solution (50 mM imidazole-HCl, pH 6.8, 25 mM L-glutamine, 12.5 mM hydroxylamine, 12.5 mM sodium arsenate, 1 mM MnCl2 and 0.08 mM ADP), the reaction was allowed to occur at 37° C. for 30 to 60 minutes.
Upon the completion of the reaction, γ-glutamylhydroxamate as a reference material was added to an empty well such that it is present at a concentration of between 0.391 and 25.0 mM. To the sample and reference material, 100 μl of reaction termination solution (90 mM FeCl3, 1.8 N HCl and 1.45% (w/v) trichloroacetic acid) were added and absorbance at a wavelength of 560 nm was measured.
Based on comparison with standard curve, GS activity was obtained for each sample. GS activity was expressed in terms of the production amount of γ-glutamylhydroxamate as a final product with unit of μM/min/μg of protein.

[3] = system: high-fat diet mouse model of type 2 diabetes; experiment: fat accumulation in tissues, high-fat diet model; type: in vivo
Procedure: Twenty-seven C57BL/6 male mice (3-week old) were acclimated to the breeding condition for 1 week. […] Blood glucose was measured every week.
Mouse was anesthetized with avertin, and blood was collected from a heart. After the reaction with EDTA in a vacucontainer, the blood was centrifuged for 15 minutes at 1,500×g, 4° C. to separate plasma. According to heart perfusion with PBS and 4% paraformaldehyde (PFA), tissue fixation was carried out. Then, each tissue was harvested and stored in PFA.

[4] = system: chronic immobilization stress group (STR); experiment: OFT (open field test) after chronic immobilization stress; type: in vivo, mouse; settings: tyrosine-diet (TD, 181.2 mg/kg) compared to normal diet (ND)
Procedure: The animal models were divided into two groups (i.e., normal group and stress group). The animal of stress group was individually brought by force to a restrainer for 2 hours every day (i.e., between 2 PM and 4 PM) so that it was applied with chronic immobilization stress for 15 days. Change in bodyweight and food intake amount were measured every other day. The normal group and stress group were divided again into a normal diet group and a tyrosine-supplemented diet group (181.2 mg/kg), and then fed. OFT (open field test) was carried out using a rectangular box (60×60×20 cm). Mouse was placed at the center area of box (30×30 cm), and the mouse movement was followed for 5 minutes and total travel distance, center area duration, and frequency of center area entries were measured.

[5] = HFD animal model, L-tyrosine diet (181 mg/kg)

Row | SMILES | gene expression of IL-6 in kidney tissues (IL-6) | nitrotyrosine protein in liver tissues (nitrotyrosine protein) | ROS/RNS amount in hippocampal tissues [1] | activity of Cu/Zn SOD (Cu/Zn SOD) | GS activity in hippocampal tissues [2] | amount of fat tissues around kidney [3, 5] | fat accumulation in liver [3, 5] | tissue weight (fat accumulation in tissues) ([3]; HFD+Tyr compared to HFD) | center area duration [4] | frequency of center area entries [4] | travel distance [4]
1 | N[C@@H](Cc1ccc(O)cc1)C(=O)O [L-tyrosine] | suppressed | suppressed with statistical significance |  |  |  |  |  |  |  |  | 
2 | N[C@@H](Cc1ccc(O)cc1)C(=O)O [tyrosine] |  |  | reduced to the level of the control group; also recorded: statistically significant decrease in ROS/RNS amount | again recovered | the same or higher than the control group; also recorded: statistically significant increase in GS activity | reduced to a statistically different level | fat accumulation is reduced all over the liver | statistically significant decrease in tissue weight | higher | higher | higher
